Data from paper PMC4811675 (Cancer cell, 2016).
Where a SMILES comes first, the peptide text is derived from it. The star is where a group is joined. Cbz = O=C(OCc1ccccc1)*

Legend:
[1] = biological target: T1, SIRT3 (Homo sapiens, UniProt Q9NTG7); test: HPLC-based sirtuin inhibition assay, SIRT3; format: biochemical; conditions: at 200 µM
T1 sequence (Q9NTG7 1-399): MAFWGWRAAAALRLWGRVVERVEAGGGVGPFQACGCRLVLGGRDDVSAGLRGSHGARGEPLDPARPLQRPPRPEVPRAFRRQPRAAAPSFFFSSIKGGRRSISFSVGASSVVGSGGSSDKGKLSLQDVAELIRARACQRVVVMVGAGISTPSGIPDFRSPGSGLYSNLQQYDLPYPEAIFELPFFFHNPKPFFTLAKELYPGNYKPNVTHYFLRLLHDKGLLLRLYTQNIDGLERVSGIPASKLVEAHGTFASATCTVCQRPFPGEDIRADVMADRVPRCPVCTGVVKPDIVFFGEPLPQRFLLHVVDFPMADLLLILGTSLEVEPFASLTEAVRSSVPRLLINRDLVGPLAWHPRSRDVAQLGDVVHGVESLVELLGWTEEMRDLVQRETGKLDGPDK

[2] = tested on: MCF-7, MDA-MB-468 and MDA-MB-231; test: Cell viability assay; format: cell-based, human; conditions: 72 hr, up to 50 µM
[3] = tested on: MDA-MB-231 cells; test: Cell viability assay; format: cell-based, human; conditions: read-out: IC50 cell viability; 72 hr
[4] = tested on: MCF-10A and HME1; test: Cell viability assay; format: cell-based, human; conditions: 72 hr, compared with malignant cells
[5] = tested on: MCF-7 cells; test: Soft agar colony formation assay; format: cell-based, human; conditions: 25 µM in ethanol
[6] = tested on: NCI-60 panel of human cancer cell lines; test: NCI-60 cell line screening; format: cell-based; conditions: single dose of 10 µM, 24 hr
[7] = tested on: BT-549; test: NCI-60 cell line screening, BT-549; format: cell-based, human; conditions: 10 µM TM
[8] = tested on: MDA-MB-231 human breast cancer xenograft; test: MDA-MB-231 xenograft model in immunocompromised mice; format: in vivo
[9] = Detection of TM in mouse serum, fat and tumor tissues by mass spectrometry; format: in vivo, mice; conditions: IP administration
[10] = tested on: MMTV-PyMT mammary tumors; test: MMTV-PyMT mammary tumor model; format: in vivo, mice
[11] = tested on: c-Myc; test: c-Myc protein level in MCF-7 cells; format: cell-based, human; conditions: 25 µM
[12] = tested on: c-Myc; test: c-Myc protein level in BT-549 cells; format: cell-based, human; conditions: 25 µM
[13] = tested on: MCF-7 cells; test: Cell cycle distribution and β-galactosidase senescence staining in MCF-7 cells; format: cell-based, human; conditions: 25 µM
[14] = tested on: c-Myc; test: c-Myc transcription, turnover and NEDD4 expression in MCF-7 cells; format: cell-based, human
[15] = 30 days treatment, compared with vehicle
[16] = 30 days treatment, relative to vehicle

SMILES: CCCCCCCCCCCCCC(=S)NCCCCC(NC(=O)OCc1ccccc1)C(=O)Nc1ccccc1 (centres unmarked) [TM]
- inhibition of SIRT3 [1]: did not inhibit
- inhibition of cell viability [2]: greater inhibition of cell viability
- IC50 [3]: 34 µM
- sensitivity of cell viability to TM [4]: much less sensitive
- anchorage-independent growth (soft agar colony formation) [5]: significantly inhibited
- cell lines inhibited by >50% [6]: 36/56
- viability [7]: ~100%
- body weight ([8]; 1.5 mg TM daily, 30 days): no significant weight loss
- toxicity in mice ([8]; 1.5 mg TM daily, 30 days): did not cause significant toxicity
- tumor growth ([8]; 1.5 mg TM in 50 µL DMSO daily, IT or IP, 30 days, versus vehicle): significantly inhibited tumor growth
- acetyl-α-tubulin level in xenograft tumors [8, 15]: moderately but statistically significantly increased
- Ki-67+ cells in tumors [8, 16]: significant decrease in Ki-67^+ cells
- TM content in abdominal fat [9]: significant amount of TM accumulated in abdominal fat
- TM content in tumors [9]: reached the tumors
- acetyl-α-tubulin level in tumors [10, 15]: modest but statistically significant increase
- proliferation of tumor cells by Ki-67 staining [10, 16]: significant decrease in proliferation of tumor cells
- mean latency to tumor onset ([10]; daily IP 1.5 mg TM in 50 µL DMSO, control group 48 days): 54 days
- tumor-free survival ([10]; daily IP 1.5 mg TM, compared with vehicle): significantly prolonged
- c-Myc protein level [11]: decreased c-Myc protein level in a time-dependent manner
- c-Myc protein abundance [12]: did not have a significant effect
- cell cycle distribution ([13]; 0-72 hr, flow cytometry): pronounced increase in cells arrested in G0/G1 phase
- cellular senescence by β-galactosidase staining ([13]; 5 days): significant cellular senescence
- NEDD4 expression ([14]; MCF-7 and K562 cells, 25 µM TM): up-regulated by TM at the transcriptional level
- half-life of c-Myc ([14]; MCF-7 cells, 25 µM 4 hr then CHX): shortened
- c-Myc mRNA level ([14]; MCF-7 cells, 25 µM, RT-PCR): not affected

SMILES: CC(C)C[C@@H](C=O)NC(=O)[C@H](CC(C)C)NC(=O)[C@H](CC(C)C)NC(=O)OCc1ccccc1 [MG132, reference compound] (Cbz-Leu-Leu-Leu-aldehyde)
- effect on TM-induced down-regulation of c-Myc ([14]; MCF-7 cells, TM 25 µM 4 hr then MG132 10 µM 2 hr): prevented the TM-induced down-regulation of c-Myc
